How the values were obtained:
LTB4 receptor = target: T1, LTB4 receptor (Homo sapiens, UniProt Q15722); assay: LTB4 Receptor Binding Assay; details: potency relative to compound 1 defined as 1.0; (3H) LTB4 0.6×10^-9 M, human neutrophils
T1 construct: endogenous in cells; host or cells: neutrophils purified from venous blood of normal human donors (purity >95%)
Experimental: Neutrophils (4-6×10^6) in 1 ml Hanks' balanced salt solution containing 10 mM HEPES buffer (HBSS), pH 7.4 and 30 μM nordihydroguaiaretic acid were incubated with 0.6×10^-9 M (3H) LTB4 in the presence or absence of test compounds. The incubation was carried out at 0° C. for 45 minutes and terminated by adding 5 ml of ice-cold HBSS followed by rapid filtration of incubation mixture under vacuum through GF/C glass fiber filters. The filters were further washed with 10 ml HBSS and radioactivity was determined. Specific binding was defined as the difference between total binding and nonspecific binding which was not displaced by 10^-7 M unlabeled LTB4. All data refer to specific binding.

Human neutrophils [1] = assay: Modified Boyden Chamber Chemotaxis (LTB4-induced); format: cell-based; details: 3×10^-8 M LTB4; for Relative Potency, Chemotaxis: potency relative to compound 1 defined as 1.0
Experimental: Human neutrophils were isolated from citrated peripheral blood using standard techniques of dextran sedimentation, followed by centrifugation on Histopaque® sterile solution (Sigma) or Ficoll-paque® (Pharmacia) and hypotonic lysis of erythrocytes. A final cell suspension of 3.4×10^6 neutrophils/ml of HEPES-buffered Hanks balanced salt solution (HBSS, pH 7.3) was added to the upper well (0.8 ml) of a modified Boyden chamber (blind well). […] Percent inhibition was calculated from cell counts corrected for random migration by subtracting the mean of the HBSS control.

Human neutrophils [2] = assay: Human Neutrophil Degranulation Assay (LTB4-induced myeloperoxidase release); format: cell-based; details: LTB4 5×10^-8 M; for Relative Potency, Degranulation: potency relative to compound 1 defined as 1.0
Experimental: Neutrophils were purified from venous blood of normal human donors using standard techniques of dextran sedimentation, centrifugation on Ficoll-paque® (Pharmacia) or Histopaque® sterile solution (Sigma) and hypotonic lysis of erythrocytes (Boyum, A., Isolation of Leukocytes from Human Blood: Further Observations. Stand, J. Lab. Clin. Invest., 21 (Suppl. 97): 31, 1968). The purity of isolated neutrophils was >95%.
Neutrophil degranulation was determined by measuring the release of myeloperoxidase activity into the incubation medium. Neutrophils (3×10^6) in 1 ml HBSS solution were preincubated with cytochalasin B(5 μg) at 37° C. for 5 minutes, followed by preincubation with test compounds for 7 minutes. Neutrophils were then incubated for 2 to 20 minutes with LTB4 (5×10^-8 M) to induce degranulation. Following incubation, samples were centrifuged and myeloperoxidase was extracted from the cell pellets by sonication in phosphate buffer containing 0.4% Triton X-100. Triton X-100 was also added to the supernatants to a concentration of 0.4%. The supernatants and the pellet--extracts were then assayed spectrophotometrically for myeloperoxidase activity by determining the rate of decomposition of H2 O2 with o-dianisidine as hydrogen donor as described by Renlund, et al. (Renlund, D. G., MacFarlane, J. L., Christensen, R. D., Lynch, R. E., and Rothstein, G., A Quantitative and sensitive Method for Measurement of Myeloperoxidase, Clinical Research 28:75A, 1980). Myeloperoxidase activity released into the supernatant was expressed as the percent of the average total activity (pellet plus supernatant).

T1 sequence (Q15722 whole entry): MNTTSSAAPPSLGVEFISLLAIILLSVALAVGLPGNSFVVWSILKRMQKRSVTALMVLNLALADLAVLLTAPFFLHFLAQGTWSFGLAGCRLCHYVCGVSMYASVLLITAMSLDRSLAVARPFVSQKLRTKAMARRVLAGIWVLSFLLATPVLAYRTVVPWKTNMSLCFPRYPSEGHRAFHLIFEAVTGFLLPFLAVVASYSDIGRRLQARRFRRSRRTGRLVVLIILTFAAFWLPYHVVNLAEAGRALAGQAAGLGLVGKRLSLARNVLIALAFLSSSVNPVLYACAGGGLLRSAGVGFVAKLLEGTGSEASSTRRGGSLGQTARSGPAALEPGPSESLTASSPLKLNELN

Relative Potency, LTB4 Receptor Binding (LTB4 receptor) | IC50 (Human neutrophils [1]; Homo sapiens, Neutrophil) | IC50 (Human neutrophils [2]; Homo sapiens, Neutrophil) | SMILES | Relative Potency, Chemotaxis (Human neutrophils [1]) | Relative Potency, Degranulation (Human neutrophils [2])
0.8 |  |  | C=CCc1c(OCCCOc2ccc3c(c2CCC)OC(c2nnn[nH]2)CC3)ccc(C(C)=O)c1OC (centres unmarked) | 9 | 38
2 |  |  | CCCc1c(OCCCOc2ccc(C(C)=O)c(OC)c2CC2CC2)ccc2c1OC(c1nnn[nH]1)CC2 (centres unmarked) | 22.5 | 75
 | 1800 nM | 1500 nM | CCCc1c(OCCCOc2ccc(C(C)=O)c(OC)c2CCC)ccc2c1OC(C(=O)O)CC2 (centres unmarked) [Compound 1, 7-[3,(4-acetyl-3-methoxy-2-propylphenoxy)propoxy]-3,4-dihydro-8-propyl-2H-1-benzopyran-2-carboxylic acid, reference compound] |  | 

From patent US5380740A, “Anti-inflammatory compounds, compositions and method of use thereof” (G. D. Searle & Co., priority 1993, dated 1995)
